Experimental data: the supplement of paper PMC10307832

How the values were obtained:
Test in all cases: relative viability (nuclei count vs DMSO), 5 days (fraction); higher = more cells survive
[1] = compound: CN(C)CC1=CC(=CC=C1)N=C(C2=CC=CC=C2)C3=C(NC4=C3C=CC(=C4)C(=O)N(C)C)O + C[C@]1(O)C[C@@H](c2nc(-c3ccc4ccc(-c5ccccc5)nc4c3)c3c(N)nccn32)C1 [Linsitinib] (partner 1 µM)
Summary of the method: (§1)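 Lung cancer cell lines were seeded in 1536-well plates and dosed by pin tool the next day, with either a single drug or a fixed anchor-drug dose combined with five library-drug doses (not always all listed) spaced in √10 steps. Five days later, one step fixed the cells and stained their nuclei (final 0.05% Triton X-100, 1% formaldehyde, 1 ug/ml Hoechst), and nuclei were counted on 4× images. Relative viability is the nuclei count in treated wells divided by the count in vehicle wells, and each value is the median of duplicate plates.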

[2] = compound: CN(C)CC1=CC(=CC=C1)N=C(C2=CC=CC=C2)C3=C(NC4=C3C=CC(=C4)C(=O)N(C)C)O + Nc1ncn([C@H]2C[C@H](O)[C@@H](CO)O2)c(=O)n1 [Decitabine] (partner 2 µM)
Summary of the method: as §1

[3] = compound: CN(C)CC1=CC(=CC=C1)N=C(C2=CC=CC=C2)C3=C(NC4=C3C=CC(=C4)C(=O)N(C)C)O + CS(=O)(=O)N1CCN(Cc2cc3nc(-c4cccc5[nH]ncc45)nc(N4CCOCC4)c3s2)CC1 [Pictilisib] (partner 1 µM)
Summary of the method: as §1

[4] = compound: CN(C)CC1=CC(=CC=C1)N=C(C2=CC=CC=C2)C3=C(NC4=C3C=CC(=C4)C(=O)N(C)C)O + Cc1nc(NC(=O)N2CCC[C@H]2C(N)=O)sc1-c1ccnc(C(C)(C)C(F)(F)F)c1 [Alpelisib] (partner 2 µM)
Summary of the method: as §1

Cell Line	relative viability ([1]; first compound 0.08 µM)	relative viability ([1]; first compound 0.253 µM)	relative viability ([1]; first compound 0.8 µM)	relative viability ([1]; first compound 2.53 µM)	relative viability ([1]; first compound 8 µM)	relative viability ([2]; first compound 0.08 µM)	relative viability ([2]; first compound 0.253 µM)	relative viability ([2]; first compound 0.8 µM)	relative viability ([2]; first compound 2.53 µM)	relative viability ([2]; first compound 8 µM)	relative viability ([3]; first compound 0.08 µM)	relative viability ([3]; first compound 0.253 µM)	relative viability ([3]; first compound 0.8 µM)	relative viability ([3]; first compound 2.53 µM)	relative viability ([3]; first compound 8 µM)	relative viability ([4]; first compound 0.08 µM)	relative viability ([4]; first compound 0.253 µM)	relative viability ([4]; first compound 0.8 µM)	relative viability ([4]; first compound 2.53 µM)	relative viability ([4]; first compound 8 µM)
COR-L23	1.06	0.889	1.07	0.878	0.759	0.442	0.422	0.433	0.429	0.401	0.811	0.709	0.858	0.637	0.656	0.796	0.757	0.818	0.632	0.575
LK-2	0.546	0.517	0.514	0.723	0.222	0.306	0.375	0.276	0.328	0.286	0.52	0.482	0.591	0.53	0.473	1.2	0.924	0.897	0.928	0.881
PC-14	0.98	0.954	0.96	0.874	0.998	0.254	0.214	0.213	0.236	0.25	0.698	0.608	0.63	0.591	0.662	0.92	0.865	0.962	0.924	0.837
SW 1573	0.735	0.829	0.731	0.73	0.731	0.496	0.46	0.659	0.562	0.573	0.474	0.512	0.523	0.385	0.456	0.787	0.711	0.651	0.802	0.642
NCI-H2087	0.981	1.01	1.06	0.828	0.966	0.385	0.368	0.267	0.266	0.236	0.963	0.786	0.926	0.848	0.806	1.14	1.24	1.15	1.15	0.992
NCI-H460	0.841	0.758	0.893	0.471	0.54	0.449	0.491	0.503	0.456	0.471	0.366	0.295	0.311	0.313	0.321	0.521	0.454	0.467	0.401	0.229
NCI-H1734	0.763	0.911	0.957	0.9	0.762	0.526	0.491	0.455	0.564	0.493	0.479	0.461	0.408	0.402	0.471	0.624	0.71	0.643	0.693	0.5
NCI-H1648						0.418	0.568		0.538	0.544										
NCI-H2228	0.66	0.541	1.12	0.63	0.582						0.566	0.411	0.545	0.395	0.349	0.452	0.753	0.859	0.687	0.588
HCC-44	0.67	0.683	0.641	0.613	0.664	0.989	0.94	0.941	0.919	0.968	0.645	0.715	0.585	0.532	0.584	0.787	0.736	0.768	0.766	0.77
EMC-BAC-2	0.884	0.797	0.778	0.787	0.717	1.15	0.996	0.992	0.817	1.01	0.545	0.528	0.552	0.572	0.569	0.763	0.743	0.71	0.738	0.67
NCI-H522						0.672	0.673	0.635	0.597	0.574										
NCI-H1915	1.09	1.12	1.15	1.02	1.11	0.251	0.274	0.271	0.255	0.247	0.911	0.972	0.92	0.901	0.918	1.12	1.05	1.11	1.05	1.02
NCI-H661	0.623	0.549	0.529	0.574	0.455	0.537	0.55	0.477	0.554	0.584	0.4	0.465	0.387	0.498	0.657	0.67	0.635	0.37	0.685	0.614
LCLC-97TM1	0.212	0.193	0.179	0.148	0.231	0.271	0.261	0.225	0.219	0.205	0.174	0.218	0.157	0.224	0.305	0.286	0.203	0.293	0.324	0.343
NCI-H1793	0.96	0.84	0.617	1.03	0.806	0.53	0.509	0.52	0.49	0.644	0.355	0.266	0.32	0.35	0.345	0.633	0.886	0.58	0.812	0.814
HOP-62	1.11	1.08	0.99	1.1	1.16	0.21	0.282	0.195	0.206	0.262	0.817	0.7	0.587	0.943	0.497	0.995	1.13	0.93	1.03	0.973
HCC-827	0.984	0.944	1.03	0.925	0.937	0.334	0.349	0.305	0.367	0.341	1	1.05	0.863	1.06	0.8	1.06	1.04	0.93	0.923	0.875
NCI-H2126	0.701	0.668	0.679	0.759	0.686	0.568	0.602	0.598	0.606	0.633	0.451	0.518	0.451	0.541	0.507	0.806	0.784	0.751	0.762	0.779

Cell Line	relative viability ([1]; first compound 0.08 µM)	relative viability ([1]; first compound 0.253 µM)	relative viability ([1]; first compound 0.8 µM)	relative viability ([1]; first compound 2.53 µM)	relative viability ([1]; first compound 8 µM)	relative viability ([2]; first compound 0.08 µM)	relative viability ([2]; first compound 0.253 µM)	relative viability ([2]; first compound 0.8 µM)	relative viability ([2]; first compound 2.53 µM)	relative viability ([2]; first compound 8 µM)	relative viability ([3]; first compound 0.08 µM)	relative viability ([3]; first compound 0.253 µM)	relative viability ([3]; first compound 0.8 µM)	relative viability ([3]; first compound 2.53 µM)	relative viability ([3]; first compound 8 µM)	relative viability ([4]; first compound 0.08 µM)	relative viability ([4]; first compound 0.253 µM)	relative viability ([4]; first compound 0.8 µM)	relative viability ([4]; first compound 2.53 µM)	relative viability ([4]; first compound 8 µM)
RERF-LC-KJ	0.912	0.93	0.81	0.948	0.87	0.746	0.644	0.801	0.671	0.713	0.518	0.595	0.57	0.625	0.515	0.838	0.843	0.732	0.785	0.928
NCI-H2342						0.728	0.74	0.817	0.798	0.848										
A-427	1.08	1.1	1.13	1.01	1.06	0.562	0.614	0.547	0.554	0.534	0.751	0.693	0.902	0.803	0.706	1.04	1.04	1.09	1.03	1.07
HARA	0.965	1.04	0.865	0.921	0.715	0.452	0.595	0.537	0.554	0.443	0.401	0.472	0.405	0.466	0.412	0.79	0.824	0.715	0.788	0.713
HCC-78	0.62	0.452	0.475	0.535	0.511	0.564	0.716	0.766	0.681	0.665	0.197	0.24	0.24	0.206	0.224	0.364	0.324	0.356	0.363	0.318
NCI-H1792	0.548	0.493	0.5	0.372	0.424	0.506	0.594	0.585	0.484	0.602	0.303	0.248	0.27	0.207	0.18	0.689	0.588	0.669	0.644	0.555
NCI-H2347	1.04	0.995	0.994	1.03	1.05	0.631	0.634	0.583	0.635	0.679	0.868	0.637	0.697	0.663	0.6	1.02	0.983	1.07	1.08	1.04
ABC-1	0.773	0.965	0.709	0.728	0.73	1.38	0.939	1.2	0.99	0.904	0.613	0.811	0.599	0.643	0.64	1.14	1.03	0.957	0.896	1.09
Calu-6	0.951	0.877	0.989	0.911	0.885						0.899	0.872	0.932	0.877	0.852	1.05	1.11	1.06	0.971	0.93
NCI-H838	1.05	0.96	0.981	0.88	0.826	0.485	0.507	0.427	0.458	0.413	0.529	0.42	0.469	0.397	0.429	1.06	0.956	0.977	0.883	0.934
NCI-H2023	0.625	0.607	0.533	0.563	0.625	0.258	0.216	0.221	0.195	0.232	0.263	0.238	0.222	0.177	0.21	0.555	0.685	0.553	0.442	0.451
NCI-H1650						0.471	0.376	0.361	0.485	0.452	0.591	0.622	0.531	0.625	0.54					
IA-LM	0.666	0.645	0.773	0.767	0.544						0.361	0.463	0.342	0.389	0.579		0.806	0.942	0.88	1.03
EBC-1	1.02	0.964	1.05	1	1.08						0.441	0.456	0.416	0.365	0.318	0.958	0.891	1.06	0.917	0.816
ChaGo-K-1						0.524	0.516	0.523	0.418	0.485	0.814	1.03	0.967		0.879					
NCI-H1563	1.19	1.28	1.15	1.08	1.14						0.72	0.637	0.613	0.638	0.617	1.03	1.03	0.956	0.875	0.847
CAL-12T	0.779	0.838	0.799	0.771	0.841							0.74	0.482		0.459	1.19	1.29	1.18	1.11	1.15
NCI-H2170						0.516	0.487	0.452	0.462	0.418	0.299	0.329	0.238	0.303	0.297	0.809	0.827	0.514	0.714	0.578
